According to patent publication US20210030039A1, “Prebiotic Compositions And Methods Of Production Thereof” (Optibiotix Limited, priority 2018, published 2021):

Legend:
[1] = Sensory profiling (QDA) by trained sensory panel, unstructured line scales 0-100; format: in vivo, human
Text: A trained sensory panel at the Reading Sensory Science Centre (UK) were employed for sensory profiling of the samples. There were 10 panellists with between 1 and 9 years' experience. A QDA (quantitative descriptive analysis) profiling approach was taken. The panel used the same vocabulary that they had developed as a consensus for the tasting sessions including the term liquorice flavour which is characteristic note of steviol glycosides. The panel were retrained at the start of the sample set over 3 separate tasting sessions. This re-training focused on ensuring that they could reliably score sweetness relative to the new concentration of sucrose standard positions. Rating was carried out independently using unstructured lines scales (scaled 0-100), in duplicate, in isolated sensory booths. However, in order to improve discrimination for sweetness, the four sucrose samples were used as standards and the mean values for each of these samples, as agreed by the panel, are shown in Table 1 below. At the start of each scoring session the panel tasted the four reference samples in order of increasing strength to re-familiarise themselves with the positioning of these levels of sweetness on the line scale. The reference samples (10 mL) were served in transparent polystyrene cups (30 mL). They then palate cleansed with warm filtered tap water and low salt crackers (Carr's water crackers) before commencing the sample tasting session, and again between each sample scoring session. Samples, labelled with random 3 digit codes, were presented in a balanced presentation order in a monadic sequential manner with a maximum of 6 samples per day. Samples were served at 23-24° C. (room temperature) with air conditioning of the room set to 23° C.

[2] = reported; cited from earlier work

Compound	Mean Rating (0-100), sweetness standard ([1]; Standard 1, sucrose 2.0 % w/v)	Mean Rating (0-100), sweetness standard ([1]; Standard 2, sucrose 4.0 % w/v)	Mean Rating (0-100), sweetness standard ([1]; Standard 3, sucrose 6.0 % w/v)	Mean Rating (0-100), sweetness standard ([1]; Standard 4, sucrose 8.0 % w/v)	sweet potency relative to sucrose [2] [×]
OC[C@H]1O[C@@](CO)(O[C@H]2O[C@H](CO)[C@@H](O)[C@H](O)[C@H]2O)[C@@H](O)[C@@H]1O [Sucrose]	10	35	75	100	–
C[C@H](CC[C@@H](O[C@@H]1O[C@H](CO[C@@H]2O[C@H](CO)[C@@H](O)[C@H](O)[C@H]2O)[C@@H](O)[C@H](O)[C@H]1O[C@@H]1O[C@H](CO)[C@@H](O)[C@H](O)[C@H]1O)C(C)(C)O)[C@H]1CC[C@@]2(C)[C@@H]3CC=C4[C@@H](CC[C@H](O[C@@H]5O[C@H](CO[C@@H]6O[C@H](CO)[C@@H](O)[C@H](O)[C@H]6O)[C@@H](O)[C@H](O)[C@H]5O)C4(C)C)[C@]3(C)[C@H](O)C[C@]12C [Mogroside V]	–	–	–	–	~400
